Laboratory results from patent publication US20260201008A1, “SECRETIN-DERIVED GLP1R SELECTIVE AGONISTS” (GUBRA A/S, priority 2023, published 2026).
Like-named read-outs stand apart in the source and are kept apart here. Numbered stars: 1 amine (or outer) side, 2 acyl side, 3 side chain; on linkers, the order of the positions; unused ones are H or OH. Square brackets hold non-standard residues; d marks the D form. Side chains are listed from the residue outwards. Peptide text beside a SMILES is read from it. * marks the point of attachment. C20 diacid = O=C(O)CCCCCCCCCCCCCCCCCCC(=O)*; γGlu = O=C(O)[C@H](CCC(=O)[*:2])N[*:1]; AEEA = NCCOCCOCC(=O)O; Aib = CC(C)(N)C(=O)O

What was measured:
[1] = Turbidity of crude library peptides (absorbance at 600 nm); assay type: physicochemical; conditions: Physical stability of peptides
Method in brief: (§1)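 Fibril formation is scored as average ThT fluorescence from duplicate samples monitored for 72 h at 40° C with shaking stress. Turbidity is the absorbance at 600 nm taken before heating. Peptide concentration was 267 μM at pH 4.0 or pH 7.0.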

[2] = Fibril formation of crude library peptides (Thioflavin T); assay type: physicochemical; design: key: average ThT fluorescence emission at 480 nm (ex 450 nm), raw units; conditions: Physical stability of peptides
Method in brief: as §1

GLP1R = GLP1R (Homo sapiens, UniProt P43220); assay: hGLP1R potency, cAMP accumulation in CHO-K1 cells stably overexpressing hGLP1R; assay type: cell-based; design: host or cells: CHO-K1; conditions: for Selectivity: SCTR EC50/GLP1R EC50 ratio; for EC50: cAMP accumulation; for SCTR EC50/GLP1R EC50 ratio: cAMP accumulation in CHO-K1 cells
Sequence of GLP1R (P43220 24-463): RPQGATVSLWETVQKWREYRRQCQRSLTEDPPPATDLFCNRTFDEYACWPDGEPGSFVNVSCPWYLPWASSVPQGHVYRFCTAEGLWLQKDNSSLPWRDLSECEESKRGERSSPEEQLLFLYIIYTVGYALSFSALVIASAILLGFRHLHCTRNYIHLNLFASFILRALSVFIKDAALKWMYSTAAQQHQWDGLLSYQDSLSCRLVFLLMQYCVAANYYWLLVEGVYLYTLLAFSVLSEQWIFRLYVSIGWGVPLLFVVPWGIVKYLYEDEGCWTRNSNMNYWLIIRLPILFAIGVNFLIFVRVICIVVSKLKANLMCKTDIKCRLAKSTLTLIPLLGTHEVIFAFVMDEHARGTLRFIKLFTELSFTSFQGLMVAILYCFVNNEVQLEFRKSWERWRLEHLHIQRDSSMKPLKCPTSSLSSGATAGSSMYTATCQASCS
Method in brief: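 In the presence of 0.5 mM IBMX, compounds stimulated the cells for 30 minutes at room temperature. Accumulated cAMP was then detected by TR-FRET, with EC50 values fitted by variable-slope nonlinear regression.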

SCTR = SCTR (Homo sapiens, UniProt P47872); assay: hSCTR potency, cAMP accumulation in CHO-K1 cells stably overexpressing hSCTR; assay type: cell-based; design: alternatively Euroscreen ES-712-AF; FAST-0161L; host or cells: CHO-K1; conditions: cAMP accumulation
Sequence of SCTR (P47872 23-440): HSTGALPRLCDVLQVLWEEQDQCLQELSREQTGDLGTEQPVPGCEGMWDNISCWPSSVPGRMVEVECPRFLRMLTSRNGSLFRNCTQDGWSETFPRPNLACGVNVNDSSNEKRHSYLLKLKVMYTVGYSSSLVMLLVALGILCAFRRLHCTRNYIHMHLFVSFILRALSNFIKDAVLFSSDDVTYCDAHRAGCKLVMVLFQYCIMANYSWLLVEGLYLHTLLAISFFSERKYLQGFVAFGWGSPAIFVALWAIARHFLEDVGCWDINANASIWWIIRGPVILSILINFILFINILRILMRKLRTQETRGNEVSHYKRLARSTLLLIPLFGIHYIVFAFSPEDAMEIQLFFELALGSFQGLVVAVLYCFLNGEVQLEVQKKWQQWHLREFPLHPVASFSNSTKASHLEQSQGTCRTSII
Method in brief: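 In this Gs cAMP assay, stably transfected CHO-K1 hSCTR cells were stimulated at room temperature for 30 min in IBMX-containing buffer. Time-resolved FRET gave the signal. Replicates were increased when the top concentration changed or EC50 values differed 5-fold.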

[3] = CHO-K1 cells overexpressing hGLP1R, read-out: pEC50 hGLPR1 (converted)
[4] = CHO-K1 cells overexpressing hSCTR, read-out: pEC50 hSCTR (converted)
[5] = CHO-K1 cells overexpressing hGLP1R, read-out: hGLP1R pEC50 (converted)
[6] = selectivity for hGLP1R over hSCTR
[7] = CHO-K1 cells overexpressing hSCTR, read-out: hSCTR pEC50 (converted)

| Turbidity (pH 7) [1] | Fibril formation [2] | Selectivity (GLP1R) | EC50 (GLP1R; [3]) | EC50 (SCTR; [4]) | EC50 (GLP1R; [5]) | SCTR EC50/GLP1R EC50 ratio (GLP1R; [6]) | EC50 (SCTR; [7]) | EC50 (GLP1R; CHO-K1 cells stably overexpressing hGLP1R, read-out: hGLP1R potency (pEC50) (converted)) | SCTR EC50/GLP1R EC50 ratio (GLP1R; selectivity ratio, hSCTR vs hGLP1R) | EC50 (SCTR; CHO-K1 cells stably overexpressing hSCTR, read-out: hSCTR potency (pEC50) (converted)) | SMILES |
| --- | --- | --- | --- | --- | --- | --- | --- | --- | --- | --- | --- |
| 0.08 | 10620 | 1217 | 0.0794 nM | 79.4 nM | – | – | – | – | – | – | CC(C)C[C@H](NC(=O)[C@H](Cc1ccccc1)NC(=O)[C@H](CCCNC(=N)N)NC(=O)[C@H](CCC(N)=O)NC(=O)[C@H](C)NC(=O)[C@H](C)NC(=O)[C@H](C)NC(=O)C(C)(C)NC(=O)[C@H](CCC(=O)O)NC(=O)[C@H](CCCCNC(=O)COCCOCCNC(=O)COCCOCCNC(=O)CC[C@H](NC(=O)CCCCCCCCCCCCCCCCCCC(=O)O)C(=O)O)NC(=O)[C@H](CC(C)C)NC(=O)[C@H](CCCNC(=N)N)NC(=O)[C@H](CO)NC(=O)[C@@H](NC(=O)[C@H](CC(=O)O)NC(=O)[C@H](CO)NC(=O)[C@@H](NC(=O)[C@H](Cc1ccccc1)NC(=O)[C@@H](NC(=O)CNC(=O)[C@H](CCC(=O)O)NC(=O)C(C)(C)NC(=O)[C@@H](N)Cc1c[nH]cn1)[C@@H](C)O)[C@@H](C)O)C(C)C)C(=O)N[C@@H](CCC(=O)O)C(=O)N[C@@H](Cc1c[nH]cn1)C(=O)N[C@@H](CC(C)C)C(=O)N[C@H](C(N)=O)C(C)C [compound 81] (H-H[Aib]EGTFTSDVSRLK([AEEA-AEEA-γGlu-C20 diacid])E[Aib]AAAQRFLEHLV-NH2) |
| 0.08 | 4018 | – | – | – | 0.00631 nM | 16446 | 100 nM | – | – | – | CC(C)C[C@H](NC(=O)CNC(=O)[C@H](CO)NC(=O)[C@@H](NC(=O)[C@H](CC(=O)O)NC(=O)[C@H](CO)NC(=O)[C@@H](NC(=O)[C@H](Cc1ccccc1)NC(=O)[C@@H](NC(=O)CNC(=O)[C@H](CCC(=O)O)NC(=O)C(C)(C)NC(=O)[C@@H](N)Cc1c[nH]cn1)[C@@H](C)O)[C@@H](C)O)C(C)C)C(=O)N[C@@H](CCCCNC(=O)COCCOCCNC(=O)COCCOCCNC(=O)CC[C@H](NC(=O)CCCCCCCCCCCCCCCCCCC(=O)O)C(=O)O)C(=O)N[C@@H](CCC(=O)O)C(=O)N[C@@H](CCC(=O)O)C(=O)N[C@@H](C)C(=O)NC(C)(C)C(=O)N[C@@H](CC(C)C)C(=O)N[C@@H](CCC(N)=O)C(=O)N[C@@H](CCCNC(=N)N)C(=O)N[C@@H](Cc1ccccc1)C(=O)N[C@@H](CC(C)C)C(=O)N[C@@H](CCC(=O)O)C(=O)N[C@@H](Cc1c[nH]cn1)C(=O)N[C@@H](CC(C)C)C(=O)N[C@H](C(N)=O)C(C)C [compound 167] (H-H[Aib]EGTFTSDVSGLK([AEEA-AEEA-γGlu-C20 diacid])EEA[Aib]LQRFLEHLV-NH2) |
| 0.08 | 14799 | 1030149 | 0.0158 nM | 15800 nM | – | – | – | – | – | – | CC(C)C[C@H](NC(=O)[C@H](Cc1ccccc1)NC(=O)[C@H](CCCNC(=N)N)NC(=O)[C@H](CCC(N)=O)NC(=O)[C@H](CCC(=O)O)NC(=O)[C@H](C)NC(=O)[C@H](C)NC(=O)[C@@H](NC(=O)[C@H](CCC(=O)O)NC(=O)[C@H](CCCCNC(=O)COCCOCCNC(=O)COCCOCCNC(=O)CC[C@H](NC(=O)CCCCCCCCCCCCCCCCCCC(=O)O)C(=O)O)NC(=O)[C@H](CC(C)C)NC(=O)[C@H](Cc1ccc(O)cc1)NC(=O)[C@H](CO)NC(=O)[C@@H](NC(=O)[C@H](CC(=O)O)NC(=O)[C@H](CO)NC(=O)[C@@H](NC(=O)[C@H](Cc1ccccc1)NC(=O)[C@@H](NC(=O)CNC(=O)[C@H](CCC(=O)O)NC(=O)C(C)(C)NC(=O)[C@@H](N)Cc1c[nH]cn1)[C@@H](C)O)[C@@H](C)O)C(C)C)[C@@H](C)O)C(=O)N[C@@H](CCC(=O)O)C(=O)N[C@@H](Cc1c[nH]cn1)C(=O)N[C@@H](CC(C)C)C(=O)N[C@H](C(N)=O)C(C)C [compound 69] (H-H[Aib]EGTFTSDVSYLK([AEEA-AEEA-γGlu-C20 diacid])ETAAEQRFLEHLV-NH2) |
| 0.78 | 11510 | – | – | – | 0.0501 nM | 1590 | 79.4 nM | – | – | – | CC[C@H](C)[C@H](NC(=O)[C@H](Cc1ccccc1)NC(=O)[C@H](CCCNC(=N)N)NC(=O)[C@H](CCC(N)=O)NC(=O)[C@H](CC(C)C)NC(=O)[C@H](C)NC(=O)[C@H](C)NC(=O)CNC(=O)[C@H](CCC(=O)O)NC(=O)[C@H](CC(C)C)NC(=O)[C@H](CC(C)C)NC(=O)C(C)(C)NC(=O)[C@H](CO)NC(=O)[C@@H](NC(=O)[C@H](CC(=O)O)NC(=O)[C@H](CO)NC(=O)[C@@H](NC(=O)[C@H](Cc1ccccc1)NC(=O)[C@@H](NC(=O)CNC(=O)[C@H](CCC(=O)O)NC(=O)C(C)(C)NC(=O)[C@@H](N)Cc1c[nH]cn1)[C@@H](C)O)[C@@H](C)O)[C@@H](C)CC)C(=O)N[C@@H](CCC(N)=O)C(=O)N[C@@H](Cc1c[nH]c2ccccc12)C(=O)N[C@@H](CC(C)C)C(=O)N[C@H](C(N)=O)C(C)C [compound 113] (H-H[Aib]EGTFTSDIS[Aib]LLEGAALQRFIQWLV-NH2) |
| 0.25 | 144234 | – | – | – | – | – | – | 0.0251 nM | 419 | 10 nM | CC[C@H](C)[C@H](NC(=O)[C@H](Cc1ccccc1)NC(=O)[C@H](CCCNC(=N)N)NC(=O)[C@H](CCC(N)=O)NC(=O)[C@H](CC(C)C)NC(=O)[C@H](C)NC(=O)[C@H](C)NC(=O)CNC(=O)[C@H](CCC(=O)O)NC(=O)[C@H](CC(C)C)NC(=O)[C@H](CC(C)C)NC(=O)CNC(=O)[C@H](CO)NC(=O)[C@H](Cc1ccc(O)cc1)NC(=O)[C@H](CC(=O)O)NC(=O)[C@H](CO)NC(=O)[C@@H](NC(=O)[C@H](Cc1ccccc1)NC(=O)[C@@H](NC(=O)CNC(=O)[C@H](CCC(=O)O)NC(=O)C(C)(C)NC(=O)[C@@H](N)Cc1c[nH]cn1)[C@@H](C)O)[C@@H](C)O)C(=O)N[C@@H](CCC(N)=O)C(=O)N[C@@H](Cc1c[nH]c2ccccc12)C(=O)N[C@@H](CC(C)C)C(=O)N[C@H](C(N)=O)C(C)C [compound 195] (H-H[Aib]EGTFTSDYSGLLEGAALQRFIQWLV-NH2) |
| 0.08 | 13444 | 11839 | 0.1 nM | 1260 nM | – | – | – | – | – | – | CC(C)C[C@H](NC(=O)[C@H](Cc1ccccc1)NC(=O)[C@H](CCCNC(=N)N)NC(=O)[C@H](CCC(N)=O)NC(=O)C(C)(C)NC(=O)[C@H](C)NC(=O)[C@H](C)NC(=O)[C@H](Cc1ccccc1)NC(=O)[C@H](CCC(=O)O)NC(=O)[C@H](CCCCNC(=O)COCCOCCNC(=O)COCCOCCNC(=O)CC[C@H](NC(=O)CCCCCCCCCCCCCCCCCCC(=O)O)C(=O)O)NC(=O)[C@H](CC(C)C)NC(=O)[C@H](CCCNC(=N)N)NC(=O)[C@H](CO)NC(=O)[C@@H](NC(=O)[C@H](CC(=O)O)NC(=O)[C@H](CO)NC(=O)[C@@H](NC(=O)[C@H](Cc1ccccc1)NC(=O)[C@@H](NC(=O)CNC(=O)[C@H](CCC(=O)O)NC(=O)C(C)(C)NC(=O)[C@@H](N)Cc1c[nH]cn1)[C@@H](C)O)[C@@H](C)O)C(C)C)C(=O)N[C@@H](CCC(=O)O)C(=O)N[C@@H](Cc1c[nH]cn1)C(=O)N[C@@H](CC(C)C)C(=O)N[C@H](C(N)=O)C(C)C [compound 68] (H-H[Aib]EGTFTSDVSRLK([AEEA-AEEA-γGlu-C20 diacid])EFAA[Aib]QRFLEHLV-NH2) |
